Reference: US5041567A, “Antibacterial monic acid derivatives” (Beecham Group plc, priority 1982, dated 1991)
In brackets after ≈: the same amount, converted by molar mass. Where two headings read alike, the source gives them in different places.

Experiments:
[1] = tested on: Staph. aureus B4 (pen. resistant); assay: MIC against veterinary bacteria in vitro; conditions: Staphylococcus aureus, 18 h
Protocol: (§1) The activity of the compounds of the Examples against various veterinarily important bacteria, was assayed in vitro using two-fold serial dilutions in Diagnostic Sensitivity Test Agar inoculated with 10^4 organisms.

[2] = tested on: M. hyorhinis ATCC 25021; assay: MIC against mycoplasma in vitro; assay type: cell-based; conditions: Mesomycoplasma hyorhinis, ATCC25021, 144 h
[3] = tested on: Past. multocida PA2; assay: MIC against veterinary bacteria in vitro; conditions: Pasteurella multocida, PA2, 18 h
Protocol: as §1

[4] = tested on: M. bovigenitalium ATCC 14173; assay: MIC against mycoplasma in vitro; assay type: cell-based; conditions: 144 h
[5] = tested on: Strep. dysgalactiae SPD1; assay: MIC against veterinary bacteria in vitro; conditions: Streptococcus dysgalactiae, SPD1, 18 h
Protocol: as §1

[6] = tested on: M. hyorhinis ATCC 23234; assay: MIC against mycoplasma in vitro; assay type: cell-based; conditions: Mesomycoplasma hyorhinis, ATCC23234, 144 h
[7] = tested on: M. suipneumoniae TAM 6N; assay: MIC against mycoplasma in vitro; assay type: cell-based; conditions: Mesomycoplasma hyopneumoniae, TAM6N, 144 h
[8] = tested on: M. dispar NCTC 10125; assay: MIC against mycoplasma in vitro; assay type: cell-based; conditions: 144 h
[9] = tested on: M. suipneumoniae HK(2); assay: MIC against mycoplasma in vitro; assay type: cell-based; conditions: Mesomycoplasma hyopneumoniae, 144 h
[10] = tested on: M. gallisepticum S6; assay: MIC against mycoplasma in vitro; assay type: cell-based; conditions: Mycoplasmoides gallisepticum
[11] = tested on: M. suipneumoniae NCTC 10110; assay: MIC against mycoplasma in vitro; assay type: cell-based; conditions: Mesomycoplasma hyopneumoniae, NCTC10110, 144 h
[12] = tested on: Strep. agalactiae 2788-B; assay: MIC against human bacteria in vitro; assay type: cell-based; conditions: Streptococcus agalactiae; Strep. agalactiae 2788-B; 5% chocolated horse blood agar, 18 hours; read-out: MIC
[13] = tested on: Strep. faecalis I; assay: MIC against human bacteria in vitro; assay type: cell-based; conditions: Enterococcus faecalis
[14] = tested on: M. suipneumoniae PW/C/210; assay: MIC against mycoplasma in vitro; assay type: cell-based; conditions: Mesomycoplasma hyopneumoniae, 144 h
[15] = tested on: M. suipneumoniae NB12; assay: MIC against mycoplasma in vitro; assay type: cell-based; conditions: Mesomycoplasma hyopneumoniae
[16] = tested on: Sarcina lutea 8340; assay: MIC against human bacteria in vitro; assay type: cell-based; conditions: Micrococcus luteus, 8340, 18 h
[17] = tested on: S. typhimurium S18; assay: MIC against veterinary bacteria in vitro; conditions: Salmonella enterica, TYPHIMURIUM, 18 h
Protocol: as §1

[18] = tested on: Strep. suis (group D) SPS11; assay: MIC against veterinary bacteria in vitro; conditions: Streptococcus suis, 18 h
Protocol: as §1

[19] = tested on: Staph. aureus W2827; assay: MIC against human bacteria in vitro; assay type: cell-based; conditions: Staphylococcus aureus; Staph. aureus W2827; 5% chocolated horse blood agar, 18 hours; read-out: MIC
[20] = tested on: Corynebacterium pyogenes CY1; assay: MIC against veterinary bacteria in vitro; conditions: CY1, 18 h
Protocol: as §1

[21] = tested on: M. suipneumoniae Str. 11; assay: MIC against mycoplasma in vitro; assay type: cell-based; conditions: Mesomycoplasma hyopneumoniae
[22] = tested on: K. aerogenes A; assay: MIC against human bacteria in vitro; assay type: cell-based; conditions: Klebsiella aerogenes
[23] = tested on: Strep. pneumoniae CN33; assay: MIC against human bacteria in vitro; assay type: cell-based; conditions: Streptococcus pneumoniae; Strep. pneumoniae CN33; 5% chocolated horse blood agar, 18 hours; read-out: MIC
[24] = tested on: Staph. aureus 152 (pen. sens); assay: MIC against veterinary bacteria in vitro; conditions: Staphylococcus aureus, 18 h
Protocol: as §1

[25] = tested on: Staph. aureus Oxford; assay: MIC against veterinary bacteria in vitro; conditions: Staphylococcus aureus, 18 h
Protocol: as §1

[26] = tested on: M. bovis NCTC 10131; assay: microbe, parasite or virus in culture; assay type: cell-based; conditions: NCTC10131, 144 h
[27] = tested on: Erysipelothrix rhusiopathiae NCTC 8163; assay: MIC against veterinary bacteria in vitro; conditions: Erysipelothrix rhusiopathiae, NCTC8163, 18 h
Protocol: as §1

[28] = tested on: M. suipneumoniae MS 16; assay: MIC against mycoplasma in vitro; assay type: cell-based; conditions: Mesomycoplasma hyopneumoniae, MS16, 144 h
[29] = tested on: Pasteurella multocida 1633; assay: MIC against human bacteria in vitro; assay type: cell-based
[30] = tested on: M. suipneumoniae JF 435; assay: MIC against mycoplasma in vitro; assay type: cell-based; conditions: Mesomycoplasma hyopneumoniae, JF435, 144 h
[31] = tested on: Bord. bronchiseptica B08; assay: MIC against veterinary bacteria in vitro; conditions: Bordetella bronchiseptica, B08, 18 h
Protocol: as §1

[32] = tested on: P. mirabilis 889; assay: MIC against human bacteria in vitro; assay type: cell-based
[33] = tested on: M. suipneumoniae UCD 1; assay: MIC against mycoplasma in vitro; assay type: cell-based; conditions: Mesomycoplasma hyopneumoniae, UCD1, 144 h
[34] = tested on: M. suipneumoniae J2206/183^b; assay: MIC against mycoplasma in vitro; assay type: cell-based; conditions: Mesomycoplasma hyopneumoniae, 144 h
[35] = tested on: Staph. aureus Oxford; assay: MIC against human bacteria in vitro; assay type: cell-based; conditions: Staphylococcus aureus; Staph. aureus Oxford; 5% chocolated horse blood agar, 18 hours; read-out: MIC
[36] = M. hyorhinis ATCC 25021, 6 days, 37° C., read-out: MIC
[37] = M. bovigenitalium ATCC 14173, 6 days, 37° C., read-out: MIC
[38] = M. dispar NCTC 10125, 6 days, 37° C., read-out: MIC
[39] = 144 h, M. gallisepticum S6, 6 days, 37° C., read-out: MIC
[40] = 144 h, M. suipneumoniae NB12, Friis broth, 0.9% agarose, 6 days, 37° C., read-out: MIC
[41] = M. suipneumoniae JF 435, 6 days, 37° C., read-out: MIC
[42] = M. suipneumoniae UCD 1, 6 days, 37° C., read-out: MIC
[43] = Strep. faecalis I, 5% chocolated horse blood agar, 18 hours, read-out: MIC
[44] = K. aerogenes A, 5% chocolated horse blood agar, 18 hours, read-out: MIC
[45] = Pasteurella multocida 1633, 5% chocolated horse blood agar, 18 hours, read-out: MIC
[46] = Proteus mirabilis, P. mirabilis 889, 5% chocolated horse blood agar, 18 hours, read-out: MIC

SMILES | MIC [1] [µg/mL] | MIC [2, 36] [µg/mL] | MIC [3] [µg/mL] | MIC [4, 37] [µg/mL] | MIC [5] [µg/mL] | MIC [8, 38] [µg/mL] | MIC [10, 39] [µg/mL] | MIC [12] [µg/mL] | MIC [15, 40] [µg/mL] | MIC [17] [µg/mL] | MIC [18] [µg/mL] | MIC [19] [µg/mL] | MIC [20] [µg/mL] | MIC [23] [µg/mL] | MIC [24] [µg/mL] | MIC [25] [µg/mL] | MIC [26] [µg/mL] | MIC [27] [µg/mL] | MIC [30, 41] [µg/mL] | MIC [31] [µg/mL] | also measured
COC(=O)CCCCCCCc1cnc(/C=C(\C)C[C@@H]2OC[C@H](C[C@@H]3O[C@H]3[C@@H](C)[C@H](C)O)[C@@H](O)[C@H]2O)o1 [Example 7, 5-(7-Methoxycarbonylheptyl)-2-(1-normon-2-yl)oxazole A] | 5 (≈ 9.55 µM) | 10 (≈ 19.1 µM) | 20 (≈ 38.2 µM) | 1 (≈ 1.91 µM) | 2.5 (≈ 4.77 µM) | 2.5 (≈ 4.77 µM) | > 10 | 25 (≈ 47.7 µM) | > 10 | > 80 | 80 (≈ 153 µM) | 25 (≈ 47.7 µM) | > 80 | 25 (≈ 47.7 µM) | 5 (≈ 9.55 µM) | 5 (≈ 9.55 µM) | 0.1 (≈ 0.191 µM) | > 80 | > 10 | 40 (≈ 76.4 µM) | MIC ([6]; M. hyorhinis ATCC 23234, 6 days, 37° C., read-out: MIC): 10 µg/mL (≈ 19.1 µM); MIC ([7]; M. suipneumoniae TAM 6N, 6 days, 37° C., read-out: MIC): > 10 µg/mL; MIC ([9]; M. suipneumoniae HK(2), 6 days, 37° C., read-out: MIC): > 10 µg/mL; MIC ([11]; M. suipneumoniae NCTC 10110, 6 days, 37° C., read-out: MIC): 10 µg/mL (≈ 19.1 µM); MIC ([13]; 18 h): > 100 µg/mL; MIC ([14]; M. suipneumoniae PW/C/210, 6 days, 37° C., read-out: MIC): 10 µg/mL (≈ 19.1 µM); MIC [16]: > 100 µg/mL; MIC ([21]; 144 h, M. suipneumoniae Str. 11, 6 days, 37° C., read-out: MIC): 10 µg/mL (≈ 19.1 µM); MIC ([22]; 18 h): > 100 µg/mL; MIC ([28]; M. suipneumoniae MS 16, 6 days, 37° C., read-out: MIC): 10 µg/mL (≈ 19.1 µM); MIC ([29]; Pasteurella multocida, 1633, 18 h): 2.5 µg/mL (≈ 4.77 µM); MIC ([32]; Proteus mirabilis, 889, 18 h): > 100 µg/mL; MIC [33, 42]: > 10 µg/mL; MIC ([34]; M. suipneumoniae J2206/183^b, 6 days, 37° C., read-out: MIC): > 10 µg/mL
C/C(=C\c1ncc(-c2ccc(Br)cc2)o1)C[C@@H]1OC[C@H](C[C@@H]2O[C@H]2[C@@H](C)[C@H](C)O)[C@@H](O)[C@H]1O [Example 18, 5-p-Bromophenyl-2-(1-normon-2-yl) oxazole A] | 0.156 (≈ 0.299 µM) | 0.5 (≈ 0.957 µM) | 1.25 (≈ 2.39 µM) |  | 0.156 (≈ 0.299 µM) |  |  | 8 (≈ 15.3 µM) | 0.5 (≈ 0.957 µM) | > 80 | 10 (≈ 19.1 µM) | 8 (≈ 15.3 µM) | > 80 | 4 (≈ 7.66 µM) | 0.312 (≈ 0.597 µM) | 0.625 (≈ 1.2 µM) | 0.05 (≈ 0.0957 µM) | 40 (≈ 76.6 µM) | 0.5 (≈ 0.957 µM) | 40 (≈ 76.6 µM) | MIC [4]: 0.1 µg/mL (≈ 0.191 µM); MIC [6]: 0.25 µg/mL (≈ 0.479 µM); MIC [7]: 1 µg/mL (≈ 1.91 µM); MIC [8]: 0.25 µg/mL (≈ 0.479 µM); MIC [9]: 1 µg/mL (≈ 1.91 µM); MIC ([10]; S6, 144 h): 1 µg/mL (≈ 1.91 µM); MIC [11]: 1 µg/mL (≈ 1.91 µM); MIC [13, 43]: > 128 µg/mL; MIC [14]: 0.25 µg/mL (≈ 0.479 µM); MIC ([21]; STR.11, 144 h): 0.25 µg/mL (≈ 0.479 µM); MIC [35]: 2 µg/mL (≈ 3.83 µM); MIC [22, 44]: > 128 µg/mL; MIC [28]: 0.25 µg/mL (≈ 0.479 µM); MIC [29, 45]: 16 µg/mL (≈ 30.6 µM); MIC [32, 46]: > 128 µg/mL; MIC [33, 42]: 0.5 µg/mL (≈ 0.957 µM); MIC [34]: 1 µg/mL (≈ 1.91 µM)
C/C(=C\c1cc(C)on1)C[C@@H]1OC[C@H](C[C@@H]2O[C@H]2[C@@H](C)[C@H](C)O)[C@@H](O)[C@H]1O [Example 33, 5-Methyl-3-(1-normon-2-yl) isoxazole A] | 1.3 (≈ 3.41 µM) |  | 0.625 (≈ 1.64 µM) | 0.5 (≈ 1.31 µM) | 5 (≈ 13.1 µM) | 0.5 (≈ 1.31 µM) | > 10 | 64 (≈ 168 µM) |  | > 80 | > 80 | 8 (≈ 21 µM) | > 80 | 32 (≈ 83.9 µM) | 2.5 (≈ 6.55 µM) | 2.5 (≈ 6.55 µM) | 0.25 (≈ 0.655 µM) | > 80 |  | > 80 | MIC [2]: 1 µg/mL (≈ 2.62 µM); MIC [6]: 1 µg/mL (≈ 2.62 µM); MIC [7]: 2.5 µg/mL (≈ 6.55 µM); MIC [9]: 2.5 µg/mL (≈ 6.55 µM); MIC [11]: 2.5 µg/mL (≈ 6.55 µM); MIC [13, 43]: > 128 µg/mL; MIC ([15]; NB12, 144 h): 2.5 µg/mL (≈ 6.55 µM); MIC ([21]; STR.11, 144 h): 1 µg/mL (≈ 2.62 µM); MIC [35]: 8 µg/mL (≈ 21 µM); MIC [22, 44]: > 128 µg/mL; MIC [28]: 1 µg/mL (≈ 2.62 µM); MIC [29, 45]: 2 µg/mL (≈ 5.24 µM); MIC [30]: 2.5 µg/mL (≈ 6.55 µM); MIC [32, 46]: > 128 µg/mL; MIC [33]: 1 µg/mL (≈ 2.62 µM); MIC [34]: 1 µg/mL (≈ 2.62 µM)
